Like-named read-outs stand apart in the source and are kept apart here.

Series [1] can be described thus: Particle size distribution by laser diffraction. Type of series: physicochemical. The settings on record: for Particle size D10 / Particle size D50 / Particle size D90: laser diffraction. The protocol: Measurement of particle size distributions of budesonide, tiotropium bromide and formoterol fumarate before and after jet milling were measured by laser diffraction (HELOS, Sympatec GmbH, Clausthal-Zellerfelg, Germany). A small amount of formoterol fumarate and Tiotropium bromide were separately dispersed in 10 mL 0.01% tween 80 mineral oil and a small amount of budesonide was dispersed in 10 mL 0.01% tween 80 in deionized water. The samples were sonicated for 5 minutes and diluted with enough solvent to produce light obscuration in the range of 15-20%. The sizes reported are average values of at least 3 measurements. The results are presented as D(x) and span, where X is the cumulative percentile of particles under the referred size (e.g. D(50) corresponds to the median diameter of the particles). Span is a measurement of particle size distribution calculated as [(D(90)−D(10)]/D(50).

Series [2] is described as follows: BET specific surface area of triple therapy materials. The class given is physicochemical. The settings on record: for SSA: after jet milling. On the procedure: Powder porosity was determined through the measurement of the specific surface area (SSA) using a Monosorb MS-22 rapid surface area analyzer (Quantachrome Instruments, Boynton Beach, Fla.). The instrument uses a modified BET equation for SSA determination. Samples were degassed in a Thermoflow™ Degasser for at least 2 hours at 25° C. using 30% nitrogen in helium as the […].

Series [3] is described as follows: Particle size distribution by laser diffraction. The settings on record: [(D(90)−D(10)]/D(50)). Type of series: physicochemical.
The conditions of series [4]: cited from earlier work.

`COc1ccc(C[C@@H](C)NC[C@H](O)c2ccc(O)c(NC=O)c2)cc1.COc1ccc(C[C@@H](C)NC[C@H](O)c2ccc(O)c(NC=O)c2)cc1.O=C(O)/C=C/C(=O)O` [Formoterol furmarate, formoterol fumarate] displayed a Span in series [1] ([(D(90)−D(10)]/D(50))) of 7.75. Also, in series [1] (after jet milling), the D50 was 4.51±0.02 μm and the Span stood at 1.96. Further, in series [1], the “Particle size D10” value was 1.16 ± 0.05 μm, the “Particle size D50” value was found to be 6.27 ± 0.97 μm and the “Particle size D90” value amounted to 49.78 ± 7.84 μm. Further, the “Particle size D50” value in series [1] (listed as Formoterol) is reported as 6.27±0.97 μm. In series [2], the “SSA ± SD” value is recorded as 2.97 ± 0.05 m^2/g and the SSA stood at 5.08±0.26 m^2/g. Besides, the “SSA ± SD” value in series [2] (listed as formoterol) is 2.97±0.05 m^2/g. Besides, the Span in series [3] is given as 7.75.
In the case of `C[N+]1(C)[C@@H]2C[C@@H](OC(=O)C(O)(c3cccs3)c3cccs3)C[C@H]1[C@@H]1O[C@@H]12` [Jet milled tiotropium bromide, tiotropium bromide], the Span in series [1] ([(D(90)−D(10)]/D(50))) was 2.0. Moreover, in series [1], the “Particle size D10” value turned out to be 1.09 ± 0.79 μm, the “Particle size D50” value amounted to 4.65 ± 0.04 μm and the “Particle size D90” value came out at 10.39 ± 0.04 μm. Besides, in series [2], the “SSA ± SD” value came out at 2.86 ± 0.11 m^2/g.
With `O.OC[C@H]1O[C@@H](O[C@H]2[C@H](O)[C@@H](O)C(O)O[C@@H]2CO)[C@H](O)[C@@H](O)[C@H]1O` (some centres unmarked) [Lactose monohydrate, lactose monohydrate], the Span in series [1] ([(D(90)−D(10)]/D(50))) was 2.43. Besides, in series [1], the “Particle size D10” value is given as 4.13 ± 0.11 μm and the “Particle size D90” value was determined as 100.9 ± 0.27 μm. Besides, the “Particle size D50” value in series [1] (listed as lactose, monohydrate) turned out to be 39.78±1.32 μm. Further, in series [1] (monohydrate), the “Particle size D50” value was 39.78 ± 1.32 μm. In addition, in series [2], the “SSA ± SD” value is 0.34 ± 0.03 m^2/g.
In series [1] ([(D(90)−D(10)]/D(50))), `OC[C@@H](O)[C@@H](O)[C@H](O)[C@H](O)CO` [Mannitol, D-(+)-Mannitol] gave a Span of 1.8. Moreover, in series [1], the “Particle size D10” value is listed as 6.88 ± 0.07 μm, the “Particle size D50” value is 52.70 ± 0.59 μm and the “Particle size D90” value is 101.91 ± 0.41 μm. Further, in series [1] (listed as mannitol), the “Particle size D50” value came to 52.70±0.59 μm. For the same molecule, the “SSA ± SD” value in series [2] is given as 0.22 ± 0.001 m^2/g. In series [3], the Span is listed as 1.80.
`C[N+]1(C)[C@@H]2C[C@@H](OC(=O)C(O)(c3cccs3)c3cccs3)C[C@H]1[C@@H]1O[C@@H]12` [Tiotropium bromide, tiotropium bromide] registered a Span in series [1] ([(D(90)−D(10)]/D(50))) of 2.14. In series [1] (after jet milling), the D50 came to 4.65±0.04 μm and the Span is given as 2.0. In series [1], the “Particle size D10” value turned out to be 1.10 ± 0.01 μm, the “Particle size D50” value worked out at 5.14 ± 0.03 μm and the “Particle size D90” value is 12.11 ± 0.07 μm. Also, in series [1] (listed as tiotropium), the “Particle size D50” value is 5.14±0.03 μm. Moreover, in series [2], the “SSA ± SD” value amounted to 2.08 ± 0.13 m^2/g and the SSA came to 2.86±0.11 m^2/g. Moreover, the “SSA ± SD” value in series [2] (listed as tiotropium) is given as 2.08±0.13 m^2/g. In series [3], this molecule came in with a Span of 2.14.
In series [1] ([(D(90)−D(10)]/D(50))), `COc1ccc(C[C@@H](C)NC[C@H](O)c2ccc(O)c(NC=O)c2)cc1.COc1ccc(C[C@@H](C)NC[C@H](O)c2ccc(O)c(NC=O)c2)cc1.O=C(O)/C=C/C(=O)O` [jet milled formoterol fumarate, formoterol fumarate] displayed a Span of 1.96. Besides, in series [1], the “Particle size D10” value was 1.45 ± 1.01 μm, the “Particle size D50” value is on record as 4.51 ± 0.02 μm and the “Particle size D90” value was determined as 10.29 ± 0.07 μm. Further, the “SSA ± SD” value in series [2] came out at 5.08 ± 0.26 m^2/g.
As to `C[C@@H]1C[C@H]2[C@@H]3CCC4=CC(=O)C=C[C@]4(C)[C@@]3(Cl)[C@@H](O)C[C@]2(C)[C@@]1(OC(=O)c1ccco1)C(=O)CCl` [mometasone furoate], the Solubility in water result in series [4] was “practically insoluble”.
`OCc1cc(C(O)CNCCCCCCOCCCCc2ccccc2)ccc1O` (centres unmarked) [salmeterol xinafoate]: in series [4], the Solubility in water result is reported as “sparingly soluble”.
